Entries after “also recorded” stand apart in the source; their conditions may differ. Like-named read-outs stand apart in the source and are kept apart here. Where a SMILES comes first, the peptide text is derived from it. Bridges are numbered along the chain shown (N, C = ends).
How the values were obtained:
[1] = system: sodium inward current (INa) in bovine chromaffin cells; assay: Sodium current (INa) block, whole-cell patch clamp in bovine chromaffin cells; type: cell-based; conditions: for Block of INa: 10 ms pulses to 0 mV, holding -80 mV, 0 mM external Ca2+, pH 7.4, 22–24 °C, end of 3-min superfusion (legend: 1 min), mean ± SEM, n = 3–6 cells
[2] = system: voltage-dependent potassium current (IKv) in bovine chromaffin cells; assay: Voltage-dependent potassium current (IKv) block, whole-cell patch clamp in bovine chromaffin cells; type: cell-based
[3] = system: voltage-dependent Ca^2+ channel (ICa) in bovine chromaffin cells; type: cell-based; conditions: for Block of ICa: 50 ms pulses to 0 mV, holding -80 mV, 10 mM Ca2+, 5 μM TTX, pH 7.4, 22–24 °C, end of 1-min superfusion
[4] = system: intracellular calcium level ([Ca^2+]c) in bovine chromaffin cells; assay: Intracellular calcium level with Fluo-4-AM in K+-stimulated bovine chromaffin cells; type: cell-based; conditions: for Reduction of [Ca2+]c: Fluo-4, K+ stimulus (text 35 µM, legend 35 mM), room temperature, fluorescence 488/522 nm, mean ± SEM
[5] = system: human neuroblastoma (SH-SY5Y) cells; conditions: 24 h
[6] = system: zebrafish larvae; conditions: cited from earlier work
[7] = system: 6-OHDA-induced neurotoxicity on zebrafish locomotor behavior; conditions: ROS, dopaminergic neurons, ref [14], cited from earlier work
Excerpt: Previously, we investigated the synthetic versions of the linear PpVα and the folded PpVα analog, which contains an internal single disulfide bond, and the linear, chimeric PpVα. […] [17].

[8] = system: voltage-gated sodium channels in vertebrates; conditions: ref [14]; cited from earlier work
Excerpt: (§1) Previously, we investigated the synthetic versions of the linear PpVα and the folded PpVα analog, which contains an internal single disulfide bond, and the linear, chimeric PpVα.

[9] = system: zebrafish model of epilepsy; conditions: ref [14]; cited from earlier work
Excerpt: as §1

[10] = in 30%ACN/70%H2O; TFA salt, lyophilized powder; ref China Peptides (custom peptide service); cited from earlier work

## CC[C@H](C)[C@H](NC(=O)[C@H](Cc1c[nH]c2ccccc12)NC(=O)[C@H](Cc1ccc(O)cc1)NC(=O)[C@@H](N)CCCCN)C(=O)N[C@@H](CC(C)C)C(=O)N[C@@H](CC(N)=O)C(=O)N[C@H](C(=O)N1CCC[C@H]1C(=O)N[C@@H](C)C(=O)N[C@@H](CO)C(=O)N[C@H](C(=O)N[C@H]1CSSC[C@@H](C(=O)N[C@@H](Cc2c[nH]c3ccccc23)C(=O)N[C@@H](CO)C(=O)N[C@@H](CCC(N)=O)C(=O)N[C@@H](CCSC)C(=O)N[C@@H](CC(C)C)C(=O)N[C@@H](CC(C)C)C(=O)N[C@@H](Cc2ccc(O)cc2)C(=O)N[C@@H](CCCCN)C(=O)N[C@@H](CCCCN)C(=O)N[C@@H](CO)C(N)=O)NC(=O)[C@H](Cc2ccc(O)cc2)NC(=O)[C@H](CCC(=O)O)NC(=O)[C@H](CC(=O)O)NC1=O)C(C)C)C(C)C [SSB] (H-KYWILNVPASVCDEYCWSQMLLYKKS-NH2; disulfide 12-16; N-terminus assumed)
[1]; 3 μM
  Block of INa: 52.01 ± 11.02%
[1]; 10 μM
  Block of INa: 73.76 ± 6.37%
[1]; peak INa, fit to an exponential function, 1, 3, 10 μM, read-out: IC50 for sodium current blockade
  IC50: 3.15 µM
[2]; 10 µM, 400 ms pulses to 100 mV, holding -80 mV, 2 mM Ca2+, 200 μM Cd2+, 22–24 °C, mean ± SEM, n = 3–4 cells
  Block of IKv: 12.84 ± 4.19%
[2]; up to 10 µM
  Effect on voltage-dependent potassium current: no effect on IKv was observed
[3]; 1 μM, mean ± SEM, n = 3–5 cells (legend: 5–6)
  Block of ICa: 10.10 ± 7.22%
[3]; 10 μM, mean ± SEM of 5–6 experiments
  Block of ICa: 74.46 ± 5.00%
[3]; peak ICa, fit to an exponential function, 1, 3, 10 μM, read-out: IC50 for calcium current blockade
  IC50: 9.68 µM
[4]; 1 μM
  Reduction of [Ca2+]c: 28.1 ± 6.0%
[4]; 3 μM
  Reduction of [Ca2+]c: 33.3 ± 7.9%
[4]; 10 μM
  Reduction of [Ca2+]c: 42.7 ± 7.4%
[4]; K+-stimulated, fit to an exponential function, 1, 3, 10 μM, read-out: IC50 for depression of the intracellular calcium increment
  IC50: 26 µM
[5]; 1 μM
  Cell viability: 75%
[5]; 3 μM
  Cell viability: 68%
[5]; 10 μM
  Cell viability: 65%
[6]; concentration causing 50% of death, ref [14],[53]
  LD50 in zebrafish larvae: 10.88 µM
[6]; zebrafish model, ref [14]
  Toxicity relative to the linear peptide: less toxic than the linear peptide
[7]; listed as folded PpVα
  Effect on 6-OHDA-induced neurotoxicity: reversing the 6-hydroxydopamine (6-OHDA)-induced neurotoxicity on zebrafish locomotor behavior; also recorded: preventing the 6-OHDA-induced excessive ROS generation and subsequent dopaminergic neuron loss
[7]; listed as folded peptide
  Effect on 6-OHDA-induced neurotoxicity: more effective than the linear unfolded peptide in suppressing 6-OHDA-induced neurotoxicity on locomotor behavior in zebrafish
[7]; listed as folded-PpVα
  Effect on 6-OHDA-induced neurotoxicity: prevented the 6-OHDA-induced excessive ROS generation and subsequent dopaminergic neuron loss
[8]
  Block of voltage-gated sodium channels in vertebrates: effective blockers of voltage-gated sodium channels in vertebrates
[9]
  Antiepileptic and neuroprotective activities: displayed antiepileptic and neuroprotective activities
[10]
  Solubility: 1000 µg/mL

Source: article PMC12655438, “Inhibitory Activity of Calcium and Sodium Ion Channels of Neurotoxic Protoplaythoa variabilis V-Shape Helical Peptide Analogs and Their Neuroprotective Effect In Vitro” (Pharmaceuticals, 2025)
